Results on five compounds are retold here after patent US10077277B2, “Bicyclic heteroarylaminoalkyl phenyl derivatives as PI3K inhibitors” (Incyte Corporation, priority 2014, dated 2018).

One experiment has as its target PI3Kδ (p110δ/p85α) (Homo sapiens (Human), UniProt O00329). Nature of the experiment: PI3Kδ scintillation proximity assay (Example A3). The experiment is classed as biochemical. The note with it: Assay A3, 20 μM ATP. The text has this:
Example A3: PI3Kδ Scintillation Proximity Assay
[γ-^33P]ATP (10 mCi/mL) was purchased from PerkinElmer (Waltham, Mass.). Lipid kinase substrate, D-myo-Phosphatidylinositol 4,5-bisphosphate (PtdIns(4,5)P2)D (+)-sn-1,2-di-O-octanoylglyceryl, 3-O-phospho linked (PIP2), CAS 204858-53-7, was purchased from Echelon Biosciences (Salt Lake City, Utah). PI3Kδ (p110δ/p85α) was purchased from Millipore (Bedford, Mass.). ATP, MgCl2, DTT, EDTA, MOPS and CHAPS were purchased from SigmaAldrich (St. Louis, Mo.). Wheat Germ Agglutinin (WGA) YSi SPA Scintillation Beads was purchased from GE healthcare life sciences (Piscataway, N.J.).
The kinase reaction was conducted in polystyrene 384-well matrix white plate from Thermo Fisher Scientific in a final volume of 25 μL. Inhibitors were first diluted serially in DMSO and added to the plate wells before the addition of other reaction components. The final concentration of DMSO in the assay was 0.5%. The PI3K assays were carried out at room temperature in 20 mM MOPS, pH 6.7, 10 mM MgCl2, 5 mM DTT and CHAPS 0.03%. Reactions were initiated by the addition of ATP, the final reaction mixture consisted of 20 μM PIP2, 20 μM ATP, 0.2 μCi [γ-^33P] ATP, 4 nM PI3Kδ. Reactions were incubated for 210 min and terminated by the addition of 40 μL SPA beads suspended in quench buffer: 150 mM potassium phosphate pH 8.0, 20% glycerol. 25 mM EDTA, 400 μM ATP. The final concentration of SPA beads was 1.0 mg/mL. After the plate sealing, plates were shaken overnight at room temperature and centrifuged at 1800 rpm for 10 minutes, the radioactivity of the product was determined by scintillation counting on Topcount (PerkinElmer). IC50 determination was performed by fitting the curve of percent control activity versus the log of the inhibitor concentration using the GraphPad Prism 3.0 software. IC50 data for the Examples is presented in Table 2 as determined by Assay A3.

For a further experiment, the system named is SUDHL-6 cells. The experiment is described as follows: SUDHL-6 cell proliferation assay (Example B3). The experiment is classed as cell-based. The note with it: 3 days, Cell Titer-GLO ATP quantitation, read-out: SUDHL6 IC50. The procedure:
Example B3: SUDHL-6 Cell Proliferation Assay
SUDHL-6 cell line (diffuse large B cell lymphoma) was purchased from ATCC (Manassas, Va.) and maintained in the culture medium recommended (RPMI and 10% FBS). To measure the anti-proliferation activity of the compounds through ATP quantitation, the SUDHL-6 cells was plated with the culture medium (5000 cells/well/per 200 μl) into 96-well polystyrene clear black tissue culture plate (Greiner-bio-one through VWR, NJ) in the presence or absence of a concentration range of test compounds. After 3 days, Cell Titer-GLO Luminescent (Promega, Madison, Wis.) cell culture agent was added to each well for 10 minutes at room temperature to stabilize the luminescent signal. This determines the number of viable cells in culture based on quantitation of the ATP present, which signals the presence of metabolically active cells. Luminescence was measured with the TopCount 384 (Packard Bioscience through Perkin Elmer, Boston, Mass.). IC50 data for the Examples is presented in Table 3 determined by the assay of Example B3.
For orientation: ATP-based viability assays read luminescence as a measure of living cells.

Read-outs that look alike come from different tables or passages of the source.

Sequence of PI3Kδ (p110δ/p85α) (O00329 whole entry): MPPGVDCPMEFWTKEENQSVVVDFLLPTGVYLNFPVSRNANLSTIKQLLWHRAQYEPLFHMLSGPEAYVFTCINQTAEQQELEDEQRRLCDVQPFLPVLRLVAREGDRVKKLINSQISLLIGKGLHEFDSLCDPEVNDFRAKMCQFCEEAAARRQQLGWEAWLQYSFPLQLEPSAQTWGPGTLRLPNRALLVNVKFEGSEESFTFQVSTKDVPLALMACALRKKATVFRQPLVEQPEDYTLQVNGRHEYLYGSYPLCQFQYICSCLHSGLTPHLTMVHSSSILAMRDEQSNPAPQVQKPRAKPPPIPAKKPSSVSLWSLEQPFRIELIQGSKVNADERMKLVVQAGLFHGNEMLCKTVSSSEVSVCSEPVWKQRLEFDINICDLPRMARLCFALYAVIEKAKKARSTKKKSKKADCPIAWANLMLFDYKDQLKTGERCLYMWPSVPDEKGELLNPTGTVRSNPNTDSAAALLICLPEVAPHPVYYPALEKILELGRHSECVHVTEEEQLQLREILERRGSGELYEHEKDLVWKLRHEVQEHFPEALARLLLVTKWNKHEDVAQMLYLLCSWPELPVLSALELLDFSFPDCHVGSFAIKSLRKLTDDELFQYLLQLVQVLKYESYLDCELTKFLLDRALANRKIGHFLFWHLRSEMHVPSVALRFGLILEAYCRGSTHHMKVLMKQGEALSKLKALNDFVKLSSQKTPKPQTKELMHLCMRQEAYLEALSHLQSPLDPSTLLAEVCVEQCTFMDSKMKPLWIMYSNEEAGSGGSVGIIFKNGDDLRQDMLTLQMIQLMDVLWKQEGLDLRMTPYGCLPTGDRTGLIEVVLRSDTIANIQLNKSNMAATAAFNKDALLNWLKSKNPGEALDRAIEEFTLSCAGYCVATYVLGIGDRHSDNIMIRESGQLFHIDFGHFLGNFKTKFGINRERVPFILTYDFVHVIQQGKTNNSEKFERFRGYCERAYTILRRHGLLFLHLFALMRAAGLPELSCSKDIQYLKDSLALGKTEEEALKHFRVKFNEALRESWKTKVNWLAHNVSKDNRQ
Sequence of PI3Kδ (p110δ/p85α) (P27986 whole entry partner): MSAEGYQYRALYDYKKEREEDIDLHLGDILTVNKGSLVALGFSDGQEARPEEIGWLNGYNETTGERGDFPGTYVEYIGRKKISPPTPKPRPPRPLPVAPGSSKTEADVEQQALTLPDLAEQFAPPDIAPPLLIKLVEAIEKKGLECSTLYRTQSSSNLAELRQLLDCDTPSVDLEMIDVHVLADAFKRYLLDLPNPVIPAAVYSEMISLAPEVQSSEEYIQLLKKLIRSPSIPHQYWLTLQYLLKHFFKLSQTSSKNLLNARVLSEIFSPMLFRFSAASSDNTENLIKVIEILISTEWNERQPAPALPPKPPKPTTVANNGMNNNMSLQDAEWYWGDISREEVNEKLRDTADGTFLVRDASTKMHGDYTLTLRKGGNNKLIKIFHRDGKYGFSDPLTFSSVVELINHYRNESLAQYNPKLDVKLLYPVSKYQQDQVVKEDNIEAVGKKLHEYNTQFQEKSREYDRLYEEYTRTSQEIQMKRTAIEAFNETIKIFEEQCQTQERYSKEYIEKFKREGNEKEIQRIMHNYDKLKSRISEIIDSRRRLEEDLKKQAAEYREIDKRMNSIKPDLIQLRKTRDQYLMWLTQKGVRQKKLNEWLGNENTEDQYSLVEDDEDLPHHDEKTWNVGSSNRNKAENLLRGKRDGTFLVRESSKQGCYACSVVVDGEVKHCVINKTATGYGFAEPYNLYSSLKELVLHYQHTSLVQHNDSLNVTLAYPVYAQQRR

As for `CCOc1c(C(C)Nc2ncnc3scnc23)cc(Cl)c(F)c1C1CNC(=O)C1` (single isomer, unassigned) [Example 1A, 4-{3-chloro-6-ethoxy-2-fluoro-5-[1-([1,3]thiazolo[5,4-d]pyrimidin-7-ylamino)ethyl]phenyl}pyrrolidin-2-one], the IC50 at PI3Kδ (p110δ/p85α) was at most 0.1 µM; in the experiment with SUDHL-6 cells (Homo sapiens, SU-DHL-6, 72 h) it was at most 0.5 µM.

Consider `CCOc1c(C(C)Nc2ncnc3scnc23)cc(Cl)c(F)c1C1CNC(=O)C1` (single isomer, unassigned) [Example 1C, 4-{3-chloro-6-ethoxy-2-fluoro-5-[1-([1,3]thiazolo[5,4-d]pyrimidin-7-ylamino)ethyl]phenyl}pyrrolidin-2-one], for which the figures for the IC50 at PI3Kδ (p110δ/p85α) and in the experiment on SUDHL-6 cells were at most 0.1 µM and at most 0.5 µM, respectively.

`CCOc1c([C@@H](C)Nc2ncnc3cccnc23)cc(Cl)c(F)c1[C@@H]1CNC(=O)C1` [Example 2A, 4-{3-chloro-6-ethoxy-2-fluoro-5-[1-(pyrido[3,2-d]pyrimidin-4-ylamino)ethyl]phenyl}pyrrolidin-2-one]: the IC50 at PI3Kδ (p110δ/p85α) was at most 0.1 µM; with SUDHL-6 cells (Homo sapiens, SU-DHL-6, 72 h), at most 0.5 µM.

Regarding `COc1c([C@H](C)Nc2ncnc3cccnc23)cc(Cl)c(C)c1-c1ccc(C(=O)N(C)C)nc1` [Example 3, 5-{3-Chloro-6-methoxy-2-methyl-5-[(1S)-1-(pyrido[3,2-d]pyrimidin-4-ylamino)ethyl]phenyl}-N,N-dimethylpyridine-2-carboxamide bis(trifluoroacetate)], the IC50 at PI3Kδ (p110δ/p85α) is at most 0.1 µM; in the experiment on SUDHL-6 cells (Homo sapiens, SU-DHL-6, 72 h), at most 0.5 µM.

As for `CCNC(=O)c1c(C)c(Cl)cc(C(C)Nc2ncnc3cccnc23)c1-c1cc(F)cc(F)c1` (stereo not shown) [Example 4, 4-Chloro-N-ethyl-3′,5′-difluoro-3-methyl-6-[1-(pyrido[3,2-d]pyrimidin-4-ylamino)ethyl]biphenyl-2-carboxamide], the IC50 against PI3Kδ (p110δ/p85α) is at most 0.1 µM; in the experiment with SUDHL-6 cells (Homo sapiens, SU-DHL-6, 72 h), at most 0.5 µM.

As a reminder, the IC50 is the concentration that gives 50% inhibition.
